Among the test systems are U251 CNS; M14 melanoma; HCT-116 colon; NCI-H460 lung; PC-3 prostate; SF-295 CNS; OVCAR-3 ovarian; CCRF-CEM leukemia; UACC-257 melanoma; SK-MEL-5 melanoma.
What all share (assay): growth of human tumour cells (NCI), 48 h

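Cells were grown in 96-well plates and exposed to each compound for 48 hours at five concentrations; endpoints were interpolated linearly between bracketing concentrations, or set to the highest concentration if not reached. Abbreviation: GI50, concentration required for 50% inhibition of growth. Definition used: TGI = concentration required for complete inhibition of growth.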

In the case of `CC(N)(Cc1c[nH]c2ccccc12)C(=O)O` (centres undefined), the GI50 in the test with U251 CNS, in the test on M14 melanoma, in the test on HCT-116 colon, in the test with NCI-H460 lung, in the test with PC-3 prostate and in the test with SF-295 CNS was greater than 2500 µM in each case. Further, the GI50 was greater than 2500 µM in the test with OVCAR-3 ovarian, greater than 2500 µM in the test on CCRF-CEM leukemia, greater than 2500 µM in the test on UACC-257 melanoma and 2350 µM in the test on SK-MEL-5 melanoma. Besides, the TGI in the test with U251 CNS, in the test with M14 melanoma, in the test on HCT-116 colon, in the test on NCI-H460 lung, in the test on PC-3 prostate and in the test on SF-295 CNS was greater than 2500 µM each time. For the same compound, the TGI with OVCAR-3 ovarian, in the test with CCRF-CEM leukemia, with UACC-257 melanoma and with SK-MEL-5 melanoma was greater than 2500 µM throughout.

`Fc1c[c-]c(-c2ccccn2)c(F)c1.[CH3-].[Pt+2].c1ccc([PH+](c2ccccc2)c2ccccn2)cc1`: the GI50 in the test on U251 CNS is 1.88 µM; in the test on HCT-116 colon, 1.3 µM; in the test on NCI-H460 lung it was 1.63 µM; in the test on PC-3 prostate, 1.41 µM; in the test with SF-295 CNS, 4.91 µM; in the test on OVCAR-3 ovarian it was 1.44 µM. In addition, the GI50 in the test on CCRF-CEM leukemia was 1.38 µM; with UACC-257 melanoma, 1.67 µM; with SK-MEL-5 melanoma it was 1.6 µM. Further, the TGI in the test on U251 CNS was found to be 6.02 µM; in the test on HCT-116 colon, 2.8 µM; in the test on NCI-H460 lung, 4.91 µM; in the test on PC-3 prostate it was 3.89 µM; in the test with SF-295 CNS it was 62.5 µM; in the test with OVCAR-3 ovarian it was 2.88 µM. The TGI is greater than 100 µM in the test on CCRF-CEM leukemia, 5.07 µM in the test on UACC-257 melanoma and 3 µM with SK-MEL-5 melanoma.

Turning to `C[n+]1c2cc(N)ccc2cc2ccc(N)cc21` (tested in a mixture with another compound), the GI50 is 0.448 µM in the test with U251 CNS; 1.04 µM with M14 melanoma; 0.345 µM in the test on HCT-116 colon; 0.269 µM in the test on NCI-H460 lung; 0.332 µM in the test on PC-3 prostate; 0.809 µM in the test on SF-295 CNS. Besides, the GI50 is 1.16 µM in the test with OVCAR-3 ovarian, 0.337 µM in the test on UACC-257 melanoma and 0.616 µM in the test on SK-MEL-5 melanoma. The TGI is 3.65 µM in the test with U251 CNS; 5.21 µM in the test on M14 melanoma; 12.9 µM in the test with PC-3 prostate; 4.62 µM in the test on SF-295 CNS; 8.38 µM in the test with OVCAR-3 ovarian; 2.04 µM with UACC-257 melanoma. The compound further had a TGI in the test on SK-MEL-5 melanoma of 2.25 µM.

As for `CCc1nc(-n2c(CC)nc3ccccc3c2=O)nc(N)c1-c1ccc(Cl)cc1`, the GI50 in the test with U251 CNS is greater than 100 µM; in the test with M14 melanoma, 52.6 µM; in the test with HCT-116 colon, greater than 26.2 µM; in the test with NCI-H460 lung, 14 µM; in the test on PC-3 prostate, 5.74 µM; in the test on SF-295 CNS it was 12.6 µM. Besides, the GI50 with OVCAR-3 ovarian is 31.8 µM; in the test with UACC-257 melanoma, 13 µM; in the test on SK-MEL-5 melanoma it was 6.84 µM. Moreover, the TGI in the test on U251 CNS, in the test with M14 melanoma, with HCT-116 colon, in the test on NCI-H460 lung, in the test on PC-3 prostate and in the test with SF-295 CNS was greater than 100 µM throughout. For the same compound, the TGI is greater than 100 µM in the test with OVCAR-3 ovarian, greater than 94.3 µM in the test with UACC-257 melanoma and greater than 100 µM in the test on SK-MEL-5 melanoma.

With `CCN1CCC2(CC1)NC(=O)c1c(c3ccc(Cl)c(Cl)c3n1C)C2C#N` (centres undefined), the GI50 with U251 CNS is 2.83 µM; with M14 melanoma it was 1.62 µM; in the test with HCT-116 colon, 2.49 µM; with NCI-H460 lung it was 2.34 µM; with PC-3 prostate, greater than 100 µM; with SF-295 CNS, 1.79 µM. Besides, the GI50 in the test with CCRF-CEM leukemia was 3 µM; in the test on UACC-257 melanoma it was 1.84 µM; with SK-MEL-5 melanoma, 1.61 µM. The TGI in the test with U251 CNS is 12 µM; in the test on M14 melanoma, 3.1 µM; in the test on HCT-116 colon, 4.29 µM; with NCI-H460 lung it was 6.45 µM; with PC-3 prostate it was greater than 100 µM; in the test with SF-295 CNS, 4.35 µM. In addition, the TGI in the test on CCRF-CEM leukemia turned out to be 13.1 µM; in the test on UACC-257 melanoma, 3.96 µM; in the test with SK-MEL-5 melanoma, 3.06 µM.

Consider `COc1cc([N+](=O)[O-])c(S(=O)(=O)O)cc1N`, for which the TGI with U251 CNS, in the test with M14 melanoma, in the test with HCT-116 colon, in the test with NCI-H460 lung, with PC-3 prostate and with OVCAR-3 ovarian was greater than 100 µM throughout. For the same compound, the TGI with CCRF-CEM leukemia, in the test with UACC-257 melanoma and in the test with SK-MEL-5 melanoma was greater than 100 µM throughout.

On to `CCC(C(=O)c1cccs1)C(O)(C(F)(F)F)C(F)(F)F` (centres undefined), for which the TGI with U251 CNS, with M14 melanoma, with HCT-116 colon, with NCI-H460 lung, in the test on PC-3 prostate and with SF-295 CNS was greater than 100 µM each time. Besides, the TGI in the test with OVCAR-3 ovarian, in the test with UACC-257 melanoma and in the test on SK-MEL-5 melanoma was greater than 100 µM throughout.

For the compound `O=C(CCc1ccco1)NC1CCN(CC2(c3ccc(Cl)cc3)CCC2)CC1`, the GI50 in the test with U251 CNS was 13.1 µM; in the test with HCT-116 colon, 12.2 µM; in the test with NCI-H460 lung, 15.1 µM; in the test on PC-3 prostate, 14.1 µM; in the test on SF-295 CNS, 15.5 µM; in the test with OVCAR-3 ovarian, 15.6 µM. Also, the GI50 in the test on CCRF-CEM leukemia was 13.7 µM; in the test on UACC-257 melanoma it was 16.3 µM; in the test on SK-MEL-5 melanoma, 15.2 µM. Moreover, the TGI with U251 CNS is 26.4 µM; in the test on HCT-116 colon, 24.5 µM; in the test with NCI-H460 lung it was 28.4 µM; in the test with PC-3 prostate, 31.1 µM; with SF-295 CNS, 30.1 µM; with OVCAR-3 ovarian it was 32.4 µM. Besides, the TGI in the test on CCRF-CEM leukemia was found to be 49.9 µM; with UACC-257 melanoma it was 31.2 µM; in the test with SK-MEL-5 melanoma, 28.7 µM.

`C=CCC(N[C@@H](CO)c1ccccc1)c1ccccn1` (some centres undefined): the GI50 in the test with U251 CNS, in the test on M14 melanoma, in the test with HCT-116 colon, in the test with PC-3 prostate, in the test with SF-295 CNS and in the test on OVCAR-3 ovarian was greater than 100 µM throughout. For the same compound, the GI50 was 74.4 µM in the test on CCRF-CEM leukemia, 74.8 µM in the test on UACC-257 melanoma and 56.9 µM in the test on SK-MEL-5 melanoma. Further, the TGI in the test with U251 CNS, in the test with M14 melanoma, with HCT-116 colon, with PC-3 prostate, in the test with SF-295 CNS and in the test with OVCAR-3 ovarian was greater than 100 µM each time. In addition, the TGI in the test with CCRF-CEM leukemia, in the test with UACC-257 melanoma and in the test with SK-MEL-5 melanoma was greater than 100 µM in each case.

The record behind these values is PubChem BioAssay (NCI).
